Test results published in the supplement of paper PMC10933113.
Counter-ions that a name gives are not always drawn. ± gives the uncertainty stated by the source.

Columns and labels:
[1] = tested on: lysine peptide Ac-RFAAKAA-COOH; experiment: efficacy of lysine peptide change (negative = depletion) (% activity); higher = less depletion; conditions: incubation time: 24 h
[2] = tested on: cysteine peptide Ac-RFAACAA-COOH; experiment: efficacy of cysteine peptide change (negative = depletion) (% activity); higher = less depletion; conditions: incubation time: 24 h
[3] = tested on: KeratinoSens (HaCaT ARE-luciferase) cells; experiment: efficacy of ARE luciferase induction relative to DMSO (% activity over DMSO); higher = stronger induction; conditions: exposure time: 24 h
[4] = tested on: THP-1; experiment: efficacy of IL-8 induction relative to DMSO (% activity); higher = stronger induction; conditions: exposure time: 18 h

| Structure (SMILES) | efficacy of lysine peptide change [1] | efficacy of cysteine peptide change [2] | efficacy of ARE luciferase induction [3] | efficacy of IL-8 induction [4] |
| --- | --- | --- | --- | --- |
| CC(C)(C)OC(=O)c1ccc(O)cc1 [tert-Butyl 4-hydroxybenzoate] | 58.9 ± 23 | -19.7 ± 9.4 | 28.1 ± 9.8 | 0 |
| c1ccc(-c2ccccn2)nc1 [2,2'-Dipyridyl] | -0.86 ± 12 | -15.1 ± 3.5 | 45.2 ± 39 | 0 |
| CCc1oc2ccccc2c1C(=O)c1cc(I)c(O)c(I)c1 [Benziodarone] | -10.2 ± 9.7 | -8.72 ± 7.7 | 17.7 ± 22 | 0 |
| COC(=O)CCCCCCCC(=O)OC [Dimethyl nonanedioate] | 21.8 ± 24 | 59.7 ± 11 | 10.6 ± 13 | 0 |
| Oc1ccc(-c2ccccc2)cc1Cl [2-Chloro-4-phenylphenol] | 3.75 ± 3.3 | 0.73 ± 13 | 22.4 ± 9.2 | 3.65 ± 6.3 |
| O=C(O)CCCCCCCCC(=O)O [Decanedioic acid] | 3.76 ± 20 | 54.5 | 5.23 ± 4.5 | 0.59 ± 6 |
| O=C(O)c1cn(C2CC2)c2cc(N3CCNCC3)c(F)cc2c1=O [Ciprofloxacin] | -2.18 ± 19 | 8.17 ± 8.2 | 14.6 ± 25 | 0 |
| CC(C)NC(=O)c1ccc(C=O)cc1 [N-isopropyl-4-formylbenzamide] | 54.8 ± 7.6 | -2.83 ± 4.9 | 32.9 ± 39 | 29.6 ± 51 |
| CC(C)(C)C(=O)CCl [1-Chloro-3,3-dimethyl-butan-2-one] | -4.45 ± 16 | -43.1 ± 7.6 | 26.8 ± 9.2 | 5.09 ± 4.6 |
| Nc1ccc(Cl)cc1Cl [2,4-Dichloroaniline] | 6.42 ± 18 | 0 | 3.01 ± 5.2 | 8.9 ± 7.7 |
| CCNc1nc(NC(C)(C)C)nc(SC)n1 [Terbutryn] | 139 ± 22 | 21.4 ± 20 | 8.44 ± 7.8 | 4.42 ± 7.7 |
| CCC(C)(CC)c1cc(NC(=O)c2c(OC)cccc2OC)on1 [Isoxaben] | 47.2 ± 16 | 21.1 ± 6.2 | 20.2 ± 5.5 | 2.21 ± 15 |
| COc1ccc(C(=O)c2ccc(C)cc2)c(O)c1 [Mexenone] | 9.47 ± 3 | 2.33 ± 4 | 28 ± 31 | 10.8 ± 9.8 |
| c1ccc(SCCSc2ccccc2)cc1 [1,2-Bis(phenylthio)ethane] | -9.19 ± 10 | 3.83 ± 6.6 | 40.6 ± 11 | 0 |
| CCCCCCCCCCCCOCCO [2-(Dodecyloxy)ethanol] | 3.27 ± 16 | 73.8 | 8.82 ± 15 | -3.05 ± 5.3 |
| CC(=O)Oc1ccc(C(c2ccc(OC(C)=O)cc2)c2ccccn2)cc1 [Bisacodyl] | 26.8 ± 7.9 | 3.97 ± 6.9 | 30.5 ± 18 | 0 |

| Structure (SMILES) | efficacy of lysine peptide change [1] | efficacy of cysteine peptide change [2] | efficacy of ARE luciferase induction [3] | efficacy of IL-8 induction [4] |
| --- | --- | --- | --- | --- |
| O=C(Oc1ccccc1)c1ccccc1O [Phenyl salicylate] | 10.7 ± 13 | 9.93 ± 10 | 8.07 ± 11 | 0 |
| CC(C)(C)c1ccc(C(=O)CCCCl)cc1 [4'-Tert-butyl-4-chlorobutyrophenone] | 17.7 ± 16 | 94.9 | 38.6 ± 9.4 | 0 |
| O=C(O)c1ccc(=O)[nH]c1 [6-Hydroxynicotinic acid] | -6.78 ± 17 | 12.2 ± 12 | 27.8 ± 30 | 0 |
| CC(C(=O)O)c1ccc(/C=C2\CCCCC2=O)cc1 (stereo unspecified) [Pelubiprofen] | 56.7 ± 8.3 | -2.83 ± 4.9 | -2.46 ± 29 | 0 |
| CCOC(=O)CCC(=O)OCC [Diethyl butanedioate] | 2.82 ± 10 | 47 ± 2.6 | 24.9 ± 23 | 3.24 ± 5.6 |
| CC(=O)C1(C)CC2=C(CCCC2(C)C)CC1C (stereo unspecified) | 3.3 ± 5.7 | -16.5 ± 5.3 | 13.2 ± 8.8 | 5.26 ± 9.1 |
| CCCCCCCC(=O)Oc1c(Br)cc(C#N)cc1Br [Bromoxynil octanoate] | -17.8 ± 10 | -2.83 ± 4.9 | 2.61 ± 12 | 0 |
| CC(C)c1ccc2cc(C(C)C)ccc2c1 [2,6-Diisopropylnaphthalene] | 1.65 ± 26 | 7.33 ± 6.5 | 28.7 ± 11 | 2.46 ± 4.3 |
| CCCCCCCCCCCCO [1-Dodecanol] | -9.21 ± 17 | 0 | 9.49 ± 13 | 0 |
| CCCCOCCOCCOCCO [2-[2-(2-Butoxyethoxy)ethoxy]ethanol] | 207 ± 33 | 37.2 ± 7.3 | 75.4 ± 120 | 3.34 ± 5.8 |
| CCOC(=O)NC(=S)Nc1ccccc1NC(=S)NC(=O)OCC [Thiophanate] | 34.5 ± 10 | -5.09 ± 4.7 | 98.8 ± 100 | 3.6 ± 6.2 |
| CO[C@@]12[C@H](COC(N)=O)C3=C(C(=O)C(C)=C(N)C3=O)N1C[C@@H]1N[C@@H]12 [Mitomycin C] | 0 | -37 ± 6.3 | 17.2 ± 24 | 12.9 ± 11 |
| C=CCOC(=O)/C=C\C(=O)OCC=C [Diprop-2-en-1-yl (2Z)-but-2-enedioate] | -4.75 ± 8.2 | -44.3 ± 3.7 | 23.7 ± 6.3 | 3.9 ± 6.8 |
| Cc1cccc(N(C)C(=S)Oc2ccc3c(c2)C2CCC3C2)c1 (stereo unspecified) [Tolciclate] | -7.88 ± 7 | -30.8 ± 9.8 | 46.5 ± 33 | 22.4 ± 2.8 |
| C#CCN(C)CCCOc1ccc(Cl)cc1Cl [Clorgyline hydrochloride] | 20.7 ± 22 | 42.2 ± 21 | 43.6 ± 25 | 0 |
| CCCCCCOc1ccc(O)cc1 [4-(Hexyloxy)phenol] | – | – | 20 ± 18 | 0.98 ± 10 |
